Test results as given in publication doi:10.1101/2025.03.14.643303, “A genome-scale drug discovery pipeline uncovers new therapeutic targets and a unique p97 allosteric binding site in Schistosoma mansoni” (bioRxiv, 2025).
“Also recorded” adds a separate entry of the source. Like-named read-outs stand apart in the source and are kept apart here.

Key:
adult S. mansoni worms [1] = assay: Treatment of adult S. mansoni worms in culture with inhibitors (attachment to tissue culture substrate, morphology; single 10 μM and dose-response EC50); assay type: cell-based, Schistosoma mansoni; settings: for EC50: read-out: S. mansoni EC50; for effect on adult parasites: inhibitors of human targets
Procedure: Adult S. mansoni (NMRI strain) (6–7 weeks post-infection) worms were harvested from infected female Swiss Webster mice by hepatic portal vein perfusion using 37°C DMEM (Mediatech, Manassas, VA), 8% Horse Serum, and heparin.
Roughly 5 adult worm pairs were placed in 3mL Basch medium in a 12-well culture vessel, and incubated at 37°C, 5% CO2 for the length of the experiment. Compound was administered at D0, D1, and D2, media and drug refreshed every 24 hr. Worms were then allowed to remain in culture until D5, where a final assessment of worm attachment to tissue culture substate was made by light microscopy. Observations on movement and morphology were also recorded. A negative control (0.1% DMSO) and positive control (PZQ; 10 μM in 0.1% DMSO) were included in each experiment, and each experiment was repeated in triplicate for validation. For compounds that caused complete detachment in replicate experiments, the treatment was expanded to three concentrations (10 μM, 5 μM, and 1 μM) following the same treatment schedule and controls as detailed above. […] Each titration experiment was performed in triplicate according to the treatment regimen described above, using DMSO and PZQ as appropriate controls. Morphologies and motility were assessed by light microscopy, and dose-response curves were calculated using the primary readout of parasite attachment to tissue culture substrate in GraphPad Prism. […]
[…] Values were calculated using Prism.

[2] = biological target: S. mansoni p97 (Smp_018240) (Schistosoma mansoni, UniProt G4M0P7); assay: biochemical; settings: for Fold Selectivity: H. sapiens vs S. mansoni p97 IC50
Sequence of S. mansoni p97 (Smp_018240) (G4M0P7 entry or part of it): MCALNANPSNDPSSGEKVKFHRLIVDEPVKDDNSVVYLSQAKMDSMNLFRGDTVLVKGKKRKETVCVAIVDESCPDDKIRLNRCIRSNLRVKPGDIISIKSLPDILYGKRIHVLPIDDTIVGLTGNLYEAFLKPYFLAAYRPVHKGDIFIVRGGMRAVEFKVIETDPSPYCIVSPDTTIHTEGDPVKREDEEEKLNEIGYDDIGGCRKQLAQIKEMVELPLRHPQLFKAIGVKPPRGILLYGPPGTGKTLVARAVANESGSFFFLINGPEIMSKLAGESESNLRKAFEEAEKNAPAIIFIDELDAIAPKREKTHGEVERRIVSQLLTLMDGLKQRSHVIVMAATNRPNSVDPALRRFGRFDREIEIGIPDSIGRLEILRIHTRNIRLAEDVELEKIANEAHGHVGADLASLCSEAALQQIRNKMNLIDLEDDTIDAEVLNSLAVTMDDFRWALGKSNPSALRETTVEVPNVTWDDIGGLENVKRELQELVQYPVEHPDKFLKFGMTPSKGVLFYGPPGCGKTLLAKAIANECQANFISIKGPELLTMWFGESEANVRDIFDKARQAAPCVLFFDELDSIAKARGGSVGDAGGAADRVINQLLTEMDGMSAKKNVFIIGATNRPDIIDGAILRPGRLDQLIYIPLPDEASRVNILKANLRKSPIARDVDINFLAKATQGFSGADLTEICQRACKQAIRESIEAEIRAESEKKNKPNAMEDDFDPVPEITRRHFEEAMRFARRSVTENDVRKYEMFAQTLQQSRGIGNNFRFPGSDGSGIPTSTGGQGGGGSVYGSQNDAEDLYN
Procedure: E. coli BL21 (DE3) containing the desired plasmid were grown in LB medium containing […] kanamycin while shaking at 37 °C to an OD600 of 0.6–0.8. The temperature was reduced to 18°C and 0.8 mM isopropyl-beta-D-thiogalactopyranoside (IPTG) was added. The bacterial culture was harvested 16hr later by centrifugation. The resulting pellet was suspended in 60 mL lysis buffer/2L bacterial culture [20 mM Tris (pH 7.4), 300 mM NaCl, 5 mM MgCl2, 20 mM imidazole, 1% Triton X-100, 1 mg/mL lysozyme, 10% glycerol, 3 mM β-mercaptoethanol, 0.2 mM PMSF, and protease inhibitor tablet (Roche)]. […] The lysate was centrifuged at 40,000 × rpm for 35 min at 4°C. The resulting supernatant was incubated with Ni-NTA beads equilibrated to lysis buffer for 1 hr at 4°C before being loaded onto a gravity column. The bead bed was washed with wash buffer [20 mM Tris (pH 7.4), 500 mM NaCl, 5 mM MgCl2, 40 mM imidazole, 0.05% Triton X-100, 10% glycerol, 3 mM β-mercaptoethanol, 0.2 mM PMSF, 0.001 mg/mL Aprotinin, and 0.002 mg/mL Leupeptin], then eluted in the same buffer with 250 mM imidazole in wash buffer. Fractions containing p97 were concentrated using Pierce Protein Concentrators (100k MWCO) and loaded onto a gel-filtration column (Superdex 200PG) and eluted using SEC buffer [20 mM Tris (pH 7.4), 180 mM NaCl, 5 mM MgCl2, and 10% glycerol] at 0.5 mL/min flow rate on a BioRad NGC Chromatography System. Fractions corresponding to an apparent molecular weight of 500 – 600 kDa were collected and analyzed by 4–20% SDS/PAGE to evaluate purity. Concentration was determined using a BSA standard. Fractions containing purified protein were aliquoted, snap frozen in liquid nitrogen, and stored at −80 °C until use.
For manual ATP consumption assays, 1 μM p97 was incubated with 1% DMSO or inhibitor (1% DMSO final) in assay buffer [50 mM Tris (pH 7.5), 20 mM MgCl2, 1 mM EDTA, 0.5 mM tris(2-carboxyethyl)phosphine (TCEP)] for 5 minutes prior to the addition of 20 μM ATP in a 384-well plate for a total reaction volume of 10 μL, and a final concentration of 500nM enzyme and 10 μM ATP. The reaction was allowed to proceed for 50 minutes at room temperature before adding equivalent volume of Kinase-Glo Plus reagent (Promega), and a further incubation of 10 minutes in the dark.
IC50 values were calculated using GraphPad Prism.

[3] = tested on: K48 polyubiquitinated proteins; assay: Western blot of drug-treated worm lysate with K48-linkage specific polyubiquitin antibody; assay type: cell-based, Schistosoma mansoni; settings: worm lysate after 48 hr of treatment
Procedure: For drug treatment studies, 10 male adult worms (single or paired with females) were supplemented with either 0.1% DMSO or inhibitor (0.1% DMSO final). […]. After 48 hr, male parasites were separated from females using 0.25% tricaine in Basch Media 169, flash frozen in liquid nitrogen, and stored at −80°C until further processing. Male worm samples were homogenized with a pestle in 50 μL lysis buffer containing 2X sample buffer [0.471 M Tris (pH 6.7 with phosphoric acid), 20% glycerol, 5% SDS), protease inhibitor cocktail (Roche, cOmplete Mini, EDTA-free Tablets) and 10 mM DTT. The lysates were then sonicated on high for 5 min (30 sec on, 30 sec off) using a Bioruptor UCD-200. Lysates were centrifuged for 5 min at 10,000 g to remove debris. Total protein was measured using the Detergent Compatible Bradford Assay (Pierce). 50 μg of protein samples denatured in SDS Sample buffer (95°C for 5 min) were separated on a Bio-Rad 4–20% TGX Stain-Free gel along with Precision Plus Protein Dual Color Standards (Bio-Rad) as a marker. Proteins were then transferred to a nitrocellulose membrane (Bio-Rad). The membrane was blocked in a 1:5 solution of Li-Cor Odyssey Blocking buffer in PBST for 1 hr before being immunoblotted overnight at 4°C with 1:500 K48-linkage Specific Polyubiquitin Antibody (Cell Signaling Technology, 4289S) and 0.01 μg/mL mouse anti-actin antibody (1:10,000) (Developmental Studies Hybridoma Bank, JLA20) diluted in a 1:5 solution of Li-Cor Odyssey Blocking buffer in PBST. The membrane was washed 3x in TBST and then incubated in 1:5 Li-Cor Odyssey Blocking buffer containing the secondary antibodies (1:10,000 Li-Cor, 925–68071, goat anti-rabbit IRDye 680 RD, and 1:20,000 Li-Cor, 925–32280, goat anti-mouse IgM IRDye 800CW) for 1 hr at RT. The blot was washed in TBST 3x before being imaged on a LiCor Odyssey Infrared Imager.

HepG2 cells = assay: HepG2 cytotoxicity assay (Cell Titer Glo 2.0); assay type: cell-based, human
Procedure: HepG2 cells (ATCC) were plated at 2500 cells/well in 50 μL/well, dispersing cells using a 25g needle to break up clumps prior to plating. Plates were incubated for 24hr at 37C, 5% CO2. Following 24hr, 50 μL media containing 0.6% DMSO was added to a set of wells on one plate. The plate and Cell Titer Glo 2.0 reagent were brought to RT. A T=0 read was taken by adding 40 μL reagent/well, rocking the plate at 100 rpm for 2 min, then reading luminescence ~10 min later. […] 50 μL 2x concentrated compound was added to wells containing cells in 50 μL 24 hr after plating. Concentrations were tested in triplicate at following values: 30, 10, 3.3, 1.1, 0.37, 0.12, and 0.04 μM. Plates were incubated for 72 hr at 37C, 5% CO2. Following equilibration to room temperature, 40 μL undiluted reagent was added to each well, the plate rocked at 100 rpm for 2 min and then read for luminescent signal ~10 min later.
Values are plotted in excel and the 50% point determined by interpolation. Values were revisualized in Prism.

adult S. mansoni worms [4] = tested on: adult S. mansoni worms; parameters: method as in PMID 32973031; settings: schistosomes in vitro; cited from earlier work
H. sapiens p97 (P55072) = biological target: T1, H. sapiens p97 (P55072) (Homo sapiens, UniProt P55072); assay: p97 ATPase activity, ATP consumption assay (Kinase-Glo), IC50 / counter screen; assay type: biochemical
T1 construct: 6xHis (C); made in house; host or cells: E. coli BL21 (DE3)
T1 sequence (P55072 whole entry): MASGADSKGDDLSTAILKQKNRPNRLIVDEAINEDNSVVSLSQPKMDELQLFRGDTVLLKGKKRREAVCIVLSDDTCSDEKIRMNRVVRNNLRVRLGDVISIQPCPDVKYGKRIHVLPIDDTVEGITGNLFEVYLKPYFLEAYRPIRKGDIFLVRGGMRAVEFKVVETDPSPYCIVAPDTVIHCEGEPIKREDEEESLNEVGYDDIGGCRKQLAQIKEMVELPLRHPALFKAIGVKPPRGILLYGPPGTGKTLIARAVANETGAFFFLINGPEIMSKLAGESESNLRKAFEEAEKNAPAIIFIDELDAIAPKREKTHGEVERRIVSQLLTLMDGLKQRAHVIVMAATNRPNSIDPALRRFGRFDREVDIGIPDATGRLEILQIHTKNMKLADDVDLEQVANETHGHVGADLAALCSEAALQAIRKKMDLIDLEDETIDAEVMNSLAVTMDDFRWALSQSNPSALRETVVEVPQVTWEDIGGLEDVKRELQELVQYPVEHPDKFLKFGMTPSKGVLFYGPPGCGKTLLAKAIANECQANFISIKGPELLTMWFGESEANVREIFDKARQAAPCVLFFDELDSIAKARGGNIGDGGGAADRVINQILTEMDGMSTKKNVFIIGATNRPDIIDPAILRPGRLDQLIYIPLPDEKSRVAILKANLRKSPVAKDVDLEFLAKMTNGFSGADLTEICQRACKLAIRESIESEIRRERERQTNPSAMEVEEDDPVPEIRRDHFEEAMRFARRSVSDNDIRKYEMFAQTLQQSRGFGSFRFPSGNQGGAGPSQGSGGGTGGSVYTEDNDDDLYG

[5] = recombinant enzyme, Kinase-Glo, Fig. 3D, read-out: S. mansoni (IC50)
[6] = recombinant enzyme, Kinase-Glo, Fig. 3D

| Compound | accumulation of K48 polyubiquitinated proteins by western blot [3] | parasite death in vitro (adult S. mansoni worms [4]) | effect on adult parasites (adult S. mansoni worms [1]; 10 μM) | IC50 [2, 5] | IC50 (H. sapiens p97 (P55072); [6]) | also measured |
| --- | --- | --- | --- | --- | --- | --- |
| Cc1cc2c(C(N)=O)cccc2n1-c1nc2c(c(NCc3ccccc3)n1)COCC2 [CB-5083, reference compound] | accumulation of proteins targeted for proteasome-mediated degradation | sub-micromolar | – | – | – | EC50 (adult S. mansoni worms [1]; worms, Suppl. Fig. 11E): 360 nM; Fold Selectivity ([2]; Suppl. Fig. 11D): 2.0; selectivity for the schistosome enzyme over its human counterpart ([2]; S. mansoni vs H. sapiens p97 IC50): ~ 2 fold; GI50 (HepG2 cells; HepG2, 72 hr, 50% growth inhibition normalized to time = 0, Suppl. Fig. 11A, read-out: GI50): 310 nM; IC50 (HepG2 cells; HepG2, 72 hr, 50% growth inhibition relative to control, Suppl. Fig. 11A, read-out: IC50): 410 nM; GI50 (HepG2 cells; HepG2, Suppl. Fig. 11E, read-out: HepG2 GI50): 310 nM; IC50 (HepG2 cells; HepG2, Suppl. Fig. 11E, read-out: HepG2 IC50): 410 nM |
| O=C(C#Cc1ccncc1)Nc1ccc2oc(-c3ccccn3)nc2c1 [Compound 739, N-(2-(pyridin-2-yl)benzo[d]oxazol-5-yl)-3-(pyridin-4-yl)propiolamide] | accumulation of K48 polyubiquitin moieties | – | – | – | – | time to detachment of adult worms in culture (adult S. mansoni worms [1]; 10 μM): ≤ 24 h; EC50 (adult S. mansoni worms [1]; Schistosoma mansoni, adult parasites, fraction of worms attached, 72 hours of drug treatment, in culture until D5, 50 μM - 10 nM, Suppl. Fig. 9C): 1300 nM; effect on adult worms (adult S. mansoni worms [1]; benzoxazole propiolamide series, 10 μM, treated 72 hours, monitored until D5): death of the parasites; Fold Selectivity ([2]; Suppl. Fig. 9C): 2.1; IC50 ([2]; schistosome p97 enzyme, read-out: IC50): 150 nM; IC50 (H. sapiens p97 (P55072); Hs p97, 100 μM – 1 nM, Suppl. Fig. 9C): 320 ± 26 nM; GI50 (HepG2 cells; Homo sapiens, HepG2, 72 h): 850 nM; IC50 (HepG2 cells; Homo sapiens, HepG2, 72 h): 1200 nM; GI50 (HepG2 cells; Homo sapiens, HepG2, read-out: HepG2 GI50): 850 nM; IC50 (HepG2 cells; Homo sapiens, HepG2, read-out: HepG2 IC50): 1200 nM |
| c1ccc(CNc2nc(NCc3ccccc3)c3ccccc3n2)cc1 [DbeQ, reference compound] | did not observe the same accumulation | – | activity on the worms | 12000 nM | 910 ± 390 nM | – |
| CC1(C)C(N(O)C(=O)Nc2ccc(Cl)cc2)N(c2ccc(Cl)cc2)C(=O)N1CC(=O)N/N=C/C=C/c1ccc([N+](=O)[O-])o1 (stereo not shown) [Eeyarestatin I, reference compound] | did not see significant increases in K48 abundance | – | effective | – | – | – |
| COc1cccc2c(NCc3ccccc3)nc(-n3c(N)nc4ccccc43)nc12 [ML240, reference compound] | did not observe the same accumulation | – | killed parasites quickly | 66 ± 9.7 nM | 330 ± 61 nM | selectivity for the schistosome enzyme over its human counterpart [2]: ~ 5 fold |
| Cc1cc(OCc2nnc(SC3CCCC3)n2-c2cccnc2)ccc1-c1ccc(S(C)(=O)=O)cc1 [NMS-873] | accumulation of proteins targeted for proteasome-mediated degradation | sub-micromolar | – | 230 ± 75 nM | – | – |
| CC(C)N1CCN(CCNC2CCN(c3cccc(-c4cc5cc(F)ccc5[nH]4)c3)CC2)CC1 [UPCDC-30245, reference compound] | did not see significant increases in K48 abundance | – | effective | 4100 nM | 970 ± 67 nM | selectivity between schistosome and human p97 [2]: selective in favor of the human enzyme; also recorded: decreased potency |
| CC(C)C[C@H](NC(=O)[C@H](Cc1ccccc1)NC(=O)c1cnccn1)B(O)O [bortezomib] | – | killed | – | – | – | – |
